From ChEMBL document CHEMBL3091453, “Bioactive compounds from Stuhlmannia moavi from the Madagascar dry forest” (Bioorg Med Chem, 2013)
Calls of active or inactive are those of the source. The rule behind the calls is not given here.

Tests used:
Plasmodium falciparum = test: Antimalarial activity against chloroquine/mefloquine-resistant Plasmodium falciparum Dd2 after 72 hrs by SYBR Green I assay; assay type: functional; settings: Dd2, 72 h
A2780 = test: Antiproliferative activity against human A2780 cells after 2 days by Alamar Blue assay; assay type: functional, cell-based; settings: for IC50: A2780, 48 h

Row | SMILES | IC50 (Plasmodium falciparum) | IC50 (A2780) | Activity (A2780)
1 | COc1ccc(/C=C2\COc3cc(O)ccc3C2=O)cc1 [BONDUCELLIN] | 26 µM | 10.6 µM | 
2 | COc1cc(/C=C/c2cc(O)cc(O)c2)ccc1O |  |  | Active
3 | C[C@@H]1CC[C@H]2[C@@H](C)C(=O)O[C@@H]3O[C@@]4(C)CC[C@@H]1[C@]32OO4 [ARTEMISININ] | 0.007 µM |  | 
4 | CC(=O)O[C@H]1C(=O)[C@@]2(C)[C@H]([C@H](OC(=O)c3ccccc3)[C@]3(O)C[C@H](OC(=O)[C@H](O)[C@@H](NC(=O)c4ccccc4)c4ccccc4)C(C)=C1C3(C)C)[C@]1(OC(C)=O)CO[C@@H]1C[C@@H]2O [PACLITAXEL] |  | 0.024 µM | 
5 | Oc1ccc(/C=C/c2cc(O)cc(O)c2)cc1 [RESVERATROL] |  | 74 µM | 
6 | COc1cc(O)cc(/C=C/c2ccc(O)c(O)c2)c1 | 27 µM | 54 µM | 
7 | COC1=CC(=O)c2c(O)c(C(C)=O)c(C)c(O)c2C1=O | 24 µM | 8.1 µM | 
8 | Oc1cc(O)cc(/C=C/c2ccc(O)c(O)c2)c1 [PICEATANNOL] |  | 41 µM | 
